We go through 22 compounds from ChEMBL document CHEMBL3526006, “Metabolite profiling of bendamustine in urine of cancer patients after administration of [14C]bendamustine” (Drug Metab Dispos, 2012).

Holding throughout (assay type): ADME, organism-based
The nature of series [1]: Drug excretion in human urine assessed as retention time treated with [14C]bendamustine at 120 mg/m'2, iv after 2 hrs by 180 mins LC-LSC-MSn method.
The nature of series [2]: Drug excretion in human urine treated with [14C]bendamustine at 120 mg/m'2, iv after 2 hrs by 60-min LC-LSC-MSn method. The note with it: in vivo.
Series [3] in a line: Drug excretion in human urine assessed as retention time treated with [14C]bendamustine at 120 mg/m'2, iv after 2 hrs by 60 mins LC-LSC-MSn method.
Series [4] can be described thus: Drug excretion in human urine assessed as 4-(6-((2-(2-amino-2-carboxyethylthio)ethyl)(2-hydroxyethyl)amino)-1-methyl-1H-benzo[d]imidazol-2-yl)butanoic acid formation at 120 mg/m'2, iv up to 168 hrs by 60-min LC-LSC-MSn method. To be noted: in vivo.
Series [5] can be described thus: Drug excretion in human urine assessed as 4-(6-(bis(2-hydroxyethyl)amino)-1-methyl-1H-benzo[d]imidazol-2-yl)butanoic acid formation at 120 mg/m'2, iv up to 168 hrs by 60-min LC-LSC-MSn method. The note with it: in vivo.
Series [6] in a line: Drug excretion in human urine assessed as 4-(6-(bis(2-hydroxyethyl)amino)-1-methyl-1H-benzo[d]imidazol-2-yl)-4-hydroxybutanoic acid formation at 120 mg/m'2, iv up to 168 hrs by 60-min LC-LSC-MSn method. The note with it: in vivo.
Series [7] is described as follows: Total drug recovery in human at 120 mg/m'2, iv administered as single dose measured up to 3 weeks. The note with it: in vivo, read-out: Drug recovery.
A short description of series [8]: Drug excretion in human urine assessed as retention time at 120 mg/m'2, iv after 2 hrs by 180-min LC-LSC-MSn method.
Series [9] in a line: Drug recovery in human urine at 120 mg/m'2, iv administered as single dose measured up to 3 weeks. To be noted: read-out: Drug recovery.
Series [10] is described as follows: Drug excretion in human urine assessed as 4-(6-((2-(2-amino-2-carboxyethylthio)ethyl)(2-hydroxyethyl)amino)-1-methyl-1H-benzo[d]imidazol-2-yl)-4-hydroxybutanoic acid formation at 120 mg/m'2, iv up to 168 hrs by 60-min LC-LSC-MSn method. To be noted: in vivo.
The nature of series [11]: Drug level in human urine treated with [14C]bendamustine at 120 mg/m'2, iv up to 168 hrs by 60-min LC-LSC-MSn method. To be noted: in vivo.

Bounds are passed on as bounds.

Turning to `Cn1c(C(O)CCC(=O)O)nc2ccc(N(CCO)CCCl)cc21` (centres undefined), the Retention_time in series [1] is 71.3 min; in series [3] it was 27.1 min. The Drug excretion in series [2] is above 1%.
The corresponding values for `CN1CC(=O)N=C1NCCN(CCO)c1ccc2nc(CCCC(=O)O)n(C)c2c1` are 24.2 min, 13.9 min and above 1%.
With `Cn1c(CCCC(=O)O)nc2ccc(N(CCCl)CCSCC(N)C(=O)O)cc21` (centres undefined), the Retention_time in series [1] was 73.7 min; in [3], 26.5 min. In [2], this compound showed a Drug excretion above 1%.
`Cl.Cn1c(CCCC(=O)O)nc2ccc(N(CCCl)CCCl)cc21`: the Drug excretion result in series [4], in series [5], in series [6] and in [10] was “metabolite_detected” in each case. Moreover, the dose excreted at 504 h came to 76% in series [7] and 3% in series [9]. In addition, the Retention_time in [8] was 36.3 min.
As for `CC(=O)NC(CSCCN(CCCl)c1ccc2nc(CCCC(=O)O)n(C)c2c1)C(=O)O` (centres undefined), the Retention_time in [1] was found to be 97.6 min; in [3], 32.2 min. For the same compound, in [2], the Drug excretion was above 1%.
For `Cn1c(CCCC(=O)O)nc2ccc(N(CCO)CCO)cc21`, the Drug excretion result in [11] was “metabolite_detected”; in [2], above 1%. In addition, the Retention_time turned out to be 33.7 min in series [1] and 17.6 min in [3].
The corresponding values for `Cn1c(C(O)CCC(=O)O)nc2ccc(N(CCO)CCO)cc21` (centres undefined) are “metabolite_detected”, above 1%, 23.8 min and 13.3 min.
For `Cn1c(C(O)CCC(=O)O)nc2ccc(N(CCO)CCSCC(N)C(=O)O)cc21` (centres undefined), the Drug excretion result in series [11] is listed as “metabolite_detected”; in series [2] it was above 1%. Besides, the Retention_time turned out to be 19.7 min in series [1] and 11 min in series [3].
As to `Cn1c(CCCC(=O)O)nc2ccc(NCCCl)cc21`, the Retention_time is on record as 72.5 min in series [1] and 28.6 min in series [3]. In addition, the Drug excretion in series [2] is listed as above 1%.
For the compound `Cn1c(CCCC(=O)O)nc2ccc(NCC=O)cc21`, the Retention_time in [1] came out at 29.4 min; in series [3] it was 16.9 min. The compound also displayed a Drug excretion in [2] above 1%.
`Cn1c(C(O)CCC(=O)O)nc2ccc(NCCCl)cc21` (centres undefined): the results for the Retention_time in series [1] and in [3] were 57.3 min and 25.4 min, respectively. The compound also yielded a Drug excretion in series [2] above 1%.
The matching figures for `Cn1c(CCCC(=O)O)nc2ccc(N(CCCl)CCOP(=O)(O)O)cc21`: 70.7 min, 26.1 min and above 1%.
On to `Cn1c(C(O)CCC(=O)O)nc2ccc(N(CCCl)CCCl)cc21` (centres undefined), for which the Retention_time is 104.5 min in [1] and 35.1 min in series [3]. This compound also showed a Drug excretion in series [2] above 1%.
The corresponding values for `CN1CC(=O)N=C1NCCN(CCCl)c1ccc2nc(CCCC(=O)O)n(C)c2c1` are 54.6 min, 23.1 min and above 1%.
The corresponding values for `Cn1c(CCCC(=O)O)nc2ccc(N(CCO)CCS)cc21` are 64.4 min, 24.2 min and above 1%.
The corresponding values for `Cn1c(C(O)CCC(=O)O)nc2ccc(N(CCO)CCOP(=O)(O)O)cc21` (centres undefined) are 14.7 min, 7.9 min and above 1%.
Turning to `Cn1c(CCCC(=O)O)nc2ccc(N(CCS)CCCl)cc21`, the Retention_time is 99.4 min in series [1] and 35.1 min in [3]. The compound further came in with a Drug excretion in [2] above 1%.
Turning to `O=C(O)CCC(O)c1nc2ccc(N(CCCl)CCCl)cc2[nH]1` (centres undefined), the Retention_time came to 105.1 min in series [1] and 35.3 min in [3]. Besides, in [2], the Drug excretion is above 1%.
The matching figures for `Cn1c(CCCC(=O)O)nc2ccc(N(CCO)CCOP(=O)(O)O)cc21`: 22 min, 12.1 min and above 1%.
On to `Cn1c(CCCC(=O)O)nc2ccc(N(CCO)CCSCC(N)C(=O)O)cc21` (centres undefined), for which the results for the Drug excretion entry in series [11] and in [2] were “metabolite_detected” and above 1%, respectively. Besides, the Retention_time is 29 min in series [1] and 15.8 min in series [3].
For the compound `O=C(O)CCCc1nc2ccc(N(CCO)CCO)cc2[nH]1`, the Retention_time in series [1] turned out to be 18.7 min; in [3], 10.9 min. The compound further came in with a Drug excretion in series [2] above 1%.
For the compound `Cn1c(CCCC(=O)O)nc2ccc(N(CCO)CCCl)cc21`, the Retention_time in [1] turned out to be 82.7 min; in series [3], 29.2 min. Besides, the Drug excretion in [2] was above 1%.
